Test results reported in ChEMBL document CHEMBL1201862, “PubChem BioAssay data set” (2004).
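Five concentrations, 48 hours, 96-well plates. Abbreviation: GI50, concentration required for 50% inhibition of growth.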 The source made the active and inactive calls. Rule as the data show it: active = GI50 up to about 1.1 µM and inactive = higher.

Legend:
Assay in all cases: growth of human tumour cells (NCI), 48 h
BT-549 = tested on: BT-549
ACHN = tested on: ACHN
CCRF-CEM = tested on: CCRF-CEM
HCC 2998 = tested on: HCC 2998
SNB-75 = tested on: SNB-75
UO-31 = tested on: UO-31
CAKI-1 = tested on: CAKI-1
RXF 393 = tested on: RXF 393
SN12C = tested on: SN12C
T47D = tested on: T47D
HCT-15 = tested on: HCT-15
NCI-H226 = tested on: NCI-H226
NCI-H522 = tested on: NCI-H522
OVCAR-4 = tested on: OVCAR-4
MCF7 = tested on: MCF7
OVCAR-8 = tested on: OVCAR-8
SW-620 = tested on: SW-620
SNB-19 = tested on: SNB-19
NCI-H460 = tested on: NCI-H460

Row | Structure (SMILES) | GI50 (BT-549) | GI50 (ACHN) | GI50 (CCRF-CEM) | GI50 (HCC 2998) | GI50 (SNB-75) | GI50 (UO-31) | GI50 (CAKI-1) | GI50 (RXF 393) | GI50 (SN12C) | GI50 (T47D) | GI50 (HCT-15) [µM] | GI50 (NCI-H226) | GI50 (NCI-H522) | GI50 (OVCAR-4) | GI50 (MCF7) | GI50 (OVCAR-8) | GI50 (SW-620) | GI50 (SNB-19) | GI50 (NCI-H460)
1 | c1ccc2[nH]c(C3CCCCO3)nc2c1 (stereo not given) | > 100 µM (inactive) | > 100 µM (inactive) | > 100 µM (inactive) | > 100 µM (inactive) | > 100 µM (inactive) | > 100 µM (inactive) | > 100 µM (inactive) | > 100 µM (inactive) | > 100 µM (inactive) | > 100 µM (inactive) | > 100 | 6.41 µM (inactive) | > 100 µM (inactive) | > 100 µM (inactive) | > 100 µM (inactive) | > 100 µM (inactive) | > 100 µM (inactive) | > 100 µM (inactive) | –
2 | CNC(=O)c1ccccc1[S+]1c2cccc3cccc(c23)C(=O)N1C (stereo not given) | > 100 µM (inactive) | > 100 µM (inactive) | > 100 µM (inactive) | – | – | > 100 µM (inactive) | > 100 µM (inactive) | > 100 µM (inactive) | > 100 µM (inactive) | > 100 µM (inactive) | > 100 | > 100 µM (inactive) | > 100 µM (inactive) | > 100 µM (inactive) | > 100 µM (inactive) | > 100 µM (inactive) | > 100 µM (inactive) | > 100 µM (inactive) | –
3 | NC(=O)c1c2c(n3ccccc13)C(=O)c1ccccc1C2=O | > 100 µM (inactive) | > 100 µM (inactive) | > 100 µM (inactive) | > 100 µM (inactive) | 37.6 µM (inactive) | > 100 µM (inactive) | > 100 µM (inactive) | 37 µM (inactive) | – | > 100 µM (inactive) | > 100 | 52.4 µM (inactive) | – | > 100 µM (inactive) | > 100 µM (inactive) | > 100 µM (inactive) | > 100 µM (inactive) | 74 µM (inactive) | 19.4 µM (inactive)
4 | O=C(c1cccs1)N(C(=S)OCc1ccccn1)c1ccccc1 | 47.3 µM (inactive) | 50.6 µM (inactive) | 40.6 µM (inactive) | – | – | 32.6 µM (inactive) | > 100 µM (inactive) | 31 µM (inactive) | 50.7 µM (inactive) | 53.8 µM (inactive) | 53.2 | 32.9 µM (inactive) | – | – | 68.4 µM (inactive) | 56.5 µM (inactive) | 92 µM (inactive) | > 100 µM (inactive) | 70.3 µM (inactive)
5 | Cc1[nH]n(-c2nc(O)c(C)c(=O)[nH]2)c(=O)c1CCO | > 100 µM (inactive) | > 100 µM (inactive) | > 100 µM (inactive) | – | 45.6 µM (inactive) | > 100 µM (inactive) | > 100 µM (inactive) | 22.6 µM (inactive) | > 100 µM (inactive) | > 100 µM (inactive) | > 100 | > 100 µM (inactive) | > 100 µM (inactive) | > 100 µM (inactive) | > 100 µM (inactive) | > 100 µM (inactive) | > 100 µM (inactive) | > 100 µM (inactive) | > 100 µM (inactive)
6 | CN1CCC2(CC1)C(=O)N(NC(N)=O)C(=O)C2c1ccccc1 (stereo not given) | > 100 µM (inactive) | > 100 µM (inactive) | > 100 µM (inactive) | > 100 µM (inactive) | > 100 µM (inactive) | > 100 µM (inactive) | > 100 µM (inactive) | > 100 µM (inactive) | > 100 µM (inactive) | > 100 µM (inactive) | > 100 | > 100 µM (inactive) | – | > 100 µM (inactive) | > 10 µM (inactive) | > 100 µM (inactive) | > 100 µM (inactive) | > 100 µM (inactive) | > 100 µM (inactive)
7 | CCOC(=O)N/N=C(\CC)OCC | > 100 µM (inactive) | > 100 µM (inactive) | > 100 µM (inactive) | > 100 µM (inactive) | > 100 µM (inactive) | > 100 µM (inactive) | > 100 µM (inactive) | > 100 µM (inactive) | > 100 µM (inactive) | > 100 µM (inactive) | > 100 | – | > 100 µM (inactive) | – | > 100 µM (inactive) | > 100 µM (inactive) | – | > 100 µM (inactive) | > 100 µM (inactive)
8 | S=C1CC(c2ccccc2)Sc2ccc(Cl)cc2N1 (stereo not given) | 19.9 µM (inactive) | 58.1 µM (inactive) | > 100 µM (inactive) | – | 30 µM (inactive) | 71.3 µM (inactive) | 63.7 µM (inactive) | 2.99 µM (inactive) | 94 µM (inactive) | 59.3 µM (inactive) | 32.7 | > 100 µM (inactive) | 25.8 µM (inactive) | 54.5 µM (inactive) | 36.2 µM (inactive) | 43.4 µM (inactive) | – | 34 µM (inactive) | 21.2 µM (inactive)
9 | CC(C)=NC(C(=O)O)C(C)(C)S (stereo not given) | > 100 µM (inactive) | > 100 µM (inactive) | > 100 µM (inactive) | – | > 100 µM (inactive) | > 100 µM (inactive) | > 100 µM (inactive) | > 100 µM (inactive) | > 100 µM (inactive) | > 100 µM (inactive) | > 100 | > 100 µM (inactive) | > 100 µM (inactive) | > 100 µM (inactive) | > 100 µM (inactive) | > 100 µM (inactive) | > 100 µM (inactive) | > 100 µM (inactive) | > 100 µM (inactive)
10 | Cc1ccc(C(=O)/C=C2\Nc3cccnc3NC2=O)cc1 | > 100 µM (inactive) | > 100 µM (inactive) | > 100 µM (inactive) | > 100 µM (inactive) | – | > 100 µM (inactive) | > 100 µM (inactive) | 21.7 µM (inactive) | > 100 µM (inactive) | > 100 µM (inactive) | > 100 | > 100 µM (inactive) | 16.6 µM (inactive) | > 100 µM (inactive) | > 100 µM (inactive) | 51.2 µM (inactive) | – | > 100 µM (inactive) | > 100 µM (inactive)
11 | CCOC(=O)N1N(c2ccccc2)C(=O)C1(c1ccccc1)c1ccccc1 | > 100 µM (inactive) | > 100 µM (inactive) | 66.5 µM (inactive) | > 100 µM (inactive) | – | 51.6 µM (inactive) | > 100 µM (inactive) | 28.8 µM (inactive) | > 100 µM (inactive) | 18.9 µM (inactive) | > 100 | 99.1 µM (inactive) | 44.8 µM (inactive) | > 100 µM (inactive) | 25.9 µM (inactive) | > 100 µM (inactive) | > 100 µM (inactive) | > 100 µM (inactive) | –
12 | CCOC(=O)N1CCC2(CC1)CC(=O)N(Nc1ccccc1)C2=O | > 100 µM (inactive) | 9.71 µM (inactive) | > 100 µM (inactive) | > 100 µM (inactive) | > 100 µM (inactive) | 39.9 µM (inactive) | > 100 µM (inactive) | > 100 µM (inactive) | > 100 µM (inactive) | 43.5 µM (inactive) | > 100 | > 100 µM (inactive) | – | > 100 µM (inactive) | 90.6 µM (inactive) | > 100 µM (inactive) | > 100 µM (inactive) | > 100 µM (inactive) | 94.4 µM (inactive)
13 | CC1=NCC[N+]1(CCc1ccccc1)Cc1ccccc1 (stereo not given) | 33.6 µM (inactive) | > 100 µM (inactive) | 34.5 µM (inactive) | 35.7 µM (inactive) | > 100 µM (inactive) | > 100 µM (inactive) | – | > 100 µM (inactive) | 45.5 µM (inactive) | > 100 µM (inactive) | > 100 | 65 µM (inactive) | 11.6 µM (inactive) | 37.2 µM (inactive) | 47.9 µM (inactive) | 37.3 µM (inactive) | > 100 µM (inactive) | 71.9 µM (inactive) | 34.8 µM (inactive)
14 | CN(C(=O)C12C3C4(C(=O)O)C1(C(=O)N(C)C(C)(C)C)C1C2(C(=O)O)C3(C(=O)N(C)C(C)(C)C)C14C(=O)N(C)C(C)(C)C)C(C)(C)C (stereo not given) | > 100 µM (inactive) | > 100 µM (inactive) | > 100 µM (inactive) | > 100 µM (inactive) | – | > 100 µM (inactive) | > 100 µM (inactive) | > 100 µM (inactive) | > 100 µM (inactive) | > 100 µM (inactive) | > 100 | – | > 100 µM (inactive) | > 100 µM (inactive) | > 100 µM (inactive) | > 100 µM (inactive) | > 100 µM (inactive) | > 100 µM (inactive) | > 100 µM (inactive)
15 | COC1CC(OC2CCC3(C)C(CCC45CCC(C6=CC(=O)OC6)C(C)(CCC43)C5=O)C2)OC(C)C1O (stereo not given) | 20.8 µM (inactive) | 22.1 µM (inactive) | 18.4 µM (inactive) | 13.1 µM (inactive) | 30.3 µM (inactive) | 16.5 µM (inactive) | 32.6 µM (inactive) | 24 µM (inactive) | 23.5 µM (inactive) | 30.8 µM (inactive) | 24.3 | 53.1 µM (inactive) | 27.9 µM (inactive) | – | 50.7 µM (inactive) | 55.8 µM (inactive) | 43.7 µM (inactive) | 20.3 µM (inactive) | 18 µM (inactive)
16 | COC(=O)[C@](C)(Cc1ccccc1)NC(=O)[C@@H](C)N1[C@@H](c2ccccc2)COC1(C)C | 48.2 µM (inactive) | 36.7 µM (inactive) | 89.7 µM (inactive) | – | 14.4 µM (inactive) | 30.6 µM (inactive) | 82.2 µM (inactive) | 75.3 µM (inactive) | – | 46.5 µM (inactive) | 37.7 | 56.2 µM (inactive) | 13.1 µM (inactive) | 39.6 µM (inactive) | 52 µM (inactive) | 78.5 µM (inactive) | 51.8 µM (inactive) | > 100 µM (inactive) | 31 µM (inactive)
